Experimental data: patent US12660821B2, “Herbicide compositions with epyrifenacil and 2,4-D triethanolamine salt with improved properties” (MONSANTO TECHNOLOGY LLC, priority 2020, dated 2026)

Assay: Partition coefficient of compound (A) between organic solvent and water (procedure G1, HPLC)
Assay type: physicochemical
Details: approx. 25° C.
Protocol: G1: General Experimental Procedure to Determine the Partition Coefficient of Compound (A) in Solvents
The experimental procedure for the respective solvent is as follows: (1) A solution of 10 g of compound (A) is prepared in 90 g of the respective solvent; (2) An aliquot of 10 g of the solution obtained in step (1) is added to 90 g of water in a glass bottle, which is shaken on a mechanical shaker for 4 hours at ambient temperature (approximately 25° C.); (3) The contents of the glass bottle are permitted to phase separate for 4 days at ambient temperature (approximately 25° C.); and (4) Subsamples of the resulting oil and water phases are taken and analyzed by HPLC to determine the concentrations of compound (A) in oil (Co) and water phases (Cw) respectively. The subsamples are typically centrifuged before HPLC analysis to remove traces of organic solvent from the water phase.
The partition coefficient, analogous to the octanol-water partition coefficient, P, is calculated as Co/Cw. The partition coefficient is conveniently expressed as a logarithm […]=log Co/Cw=P.
The ratio of determined concentrations of compound (A) in the solvent phase and the water phase typically is very large. […]

CCOC(=O)COc1ncccc1Oc1cc(-n2c(=O)cc(C(F)(F)F)n(C)c2=O)c(F)cc1Cl [compound (A), ethyl [3-[2-chloro-4-fluoro-5-(1-methyl-6-trifluoromethyl-2,4-dioxo-1,2,3,4-tetrahydropyrimidin-3-yl)phenoxy]-2-pyridyloxy]acetate]
compound (A) in the water phase (Aromatic 200 ND as organic solvent): undetectable | compound (A) in the water phase (acetophenone as organic solvent): undetectable
